pIC50: −log10 of the molar value.
Assays:
T. gondii tachyzoites = test: Ultrastructural analysis by transmission electron microscopy; type: cell-based, Toxoplasma gondii; conditions: NBZ023 2.85 μM, NBZ035 1.6 μM
Experimental: The effects of the incubation with the drugs on the ultrastructure of T. gondii tachyzoites were observed via transmission electron microscopy (TEM). For TEM analysis, Vero cells were grown to confluence in T25 flasks and infected with 2 × 10^6 T. gondii tachyzoites for 8 h. After NBZ023 (2.85 μM) or NBZ035 (1.6 μM) was added, the cells were cultured for 8 or 24 h, then digested with TrypLE Express for 2 min, and washed twice with PBS. The detailed experimental procedures were described in a previous study.

T. gondii PRU strain = test: In vitro activity against PRU strain tachyzoites (PV counts, plaques); type: cell-based, Toxoplasma gondii; conditions: NBZ023 2.85 or 30 μM, NBZ035 1.6 or 30 μM; 24, 48, 72 h
Experimental: Vero cells were infected for 8 h with extracellular type II PRU strain tachyzoites (1.5 × 10^5), which were isolated from a mouse brain, and then the medium containing compounds or 0.1% DMSO (as a control) was added. After 24, 48, and 72 h of incubation, the numbers of PVs were assessed via […] under a 40 × objective lens, and at least 20 random fields per well were counted.

[1] = test system: T. gondii RH strain tachyzoites; test: In vitro anti-proliferation assay (qPCR of 529-bp repeat); type: cell-based, Toxoplasma gondii; conditions: for pIC50: Toxoplasma gondii, RH strain in Vero cells, 24 h treatment, qPCR, read-out: IC50, inhibition of T. gondii proliferation
Experimental: The antiproliferative effects of NBZ023 and NBZ035 on T. gondii were determined via qPCR, which was performed by using a QuantStudio 3 Flex real-time PCR system (Life Technologies). Cells were infected with tachyzoites (2 × 10^5 per well) for 6 h, then treated with NBZ023, NBZ035 (0.24‒30 μM) or pyrimethamine (0.4 μM) for 24 h, and washed twice with PBS. Infected or uninfected cells that were cultured with DMEM (1% FBS) were used as the parasite or the host cell control group, respectively. Total genomic DNA from the cell samples was isolated with the DNAiso reagent (Takara), and the levels of the 529-bp repeat sequence of T. gondii were measured via qPCR as before.

[2] = test system: PRU strain bradyzoite cysts; test: In vitro PRU bradyzoite cyst formation (DBA staining); type: cell-based, Toxoplasma gondii; conditions: PRU cysts in Vero cells, 48 h; NBZ023 2.85 or 30 μM, NBZ035 1.6 or 30 μM
Experimental: The conditions for inducing the formation of cysts in vitro by the type II PRU strain were described in a previously published study. After the induction of cyst formation, the alkaline medium was removed and replaced with a medium containing NBZ023, NBZ035, or 0.1% DMSO as the control. After 48 h, the DMEM was removed, and the PRU strain bradyzoite cysts were stained with Dolichos biflorus agglutinin (DBA) to assess the treatment effects.The stained cysts were observed using light microscopy under a 40 × objective lens, with at least 3 random fields per well counted.

[3] = Cell viability assay (CCK-8) on Vero cells; type: cell-based, African green monkey; conditions: African green monkey, CCK-8, read-out: half-maximal cytotoxic concentration (CC50) against host cells
Experimental: (§1) African green monkey kidney (Vero) cells were cultured in Dulbecco’s modified Eagle’s medium (DMEM) supplemented with 100 U/mL penicillin, 100 μg/mL streptomycin, 1% nonessential amino acids (NEAAs), 1% GlutaMAX and 10% fetal bovine serum (FBS) at 37 °C in an atmosphere of 5% CO2. […] DMEM without a drug was used as a control. After 24 h of treatment, Cell Counting Kit-8 (CCK-8, CA1210, Solarbio) was used to determine cell viability at 450 nm via a Multiskan GO instrument.

Vero cells = test: Cell viability assay (CCK-8) on Vero cells; type: cell-based, African green monkey; conditions: 24 h; for Cytotoxicity: CCK-8, tested up to 30 µM; for inhibition at 30 µM: Chlorocebus sabaeus, CCK-8, read-out: Inhibition rate of Vero cell at 30 μM
Experimental: as §1

[4] = test system: T. gondii RH strain tachyzoites; test: In vitro anti-invasion assay (qPCR; RH-GFP fluorescence microscopy); type: cell-based, Toxoplasma gondii; conditions: for pIC50: Toxoplasma gondii, RH strain, Vero cells, 2 h after infection, qPCR, read-out: IC50, inhibition of T. gondii invasion; for number of parasitophorous vacuoles (PVs) invaded by RH-GFP tachyzoites: fluorescence microscopy, compared with control and positive control groups
Experimental: Vero cells were seeded onto 6-well plates and cultured with DMEM supplemented with 10% FBS to obtain cell monolayers. The medium was replaced with fresh DMEM (1% FBS) containing NBZ023 or NBZ035 (0.24–30 μM), pyrimethamine (0.4 μM) or no drugs (as a control), and tachyzoites (2 × 10^6 per well) were then inoculated into the confluent Vero cell monolayers. At 2 h after infection, the cell monolayers were washed twice with PBS to remove extracellular tachyzoites and then total genomic DNA from the cell samples was isolated with the DNAiso reagent (Takara). The anti-invasion capabilities of NBZ023 and NBZ035 were determined by qPCR. The T. gondii RH strain with green fluorescence was seeded as described above. After infection, the cells were incubated for 36 h to fully observe the infection status of the parasites via fluorescence microscopy.

[5] = test system: T. gondii Type I tachyzoites; test: In vivo efficacy against acute T. gondii infection in mice (tissue parasite burden by qPCR); parameters: species or system BALB/c mice; conditions: acute RH infection, once daily for 7 days, compared with parasite control, NBZ compounds 10 mg/kg BW intraperitoneally, positive control orally
Experimental: Female BALB/c mice (18-20 g, 6-8 weeks old) were divided into 4 groups consisting of 6 mice each, and each mouse was injected intraperitoneally with 2 × 10^3 Type I tachyzoites. Four hours after inoculation, the treatments were administered once per day for 7 consecutive days. NBZ023 and NBZ035 were dissolved in isotonic saline containing 5% ethanol and 5% Cremophor EL to a concentration of 1 mg/mL for in vivo experiments. Sulfadiazine (10 mg/mL, Sigma, USA), pyrimethamine (5 mg/mL, Sigma, USA), and folinic acid (1.5 mg/mL, Sigma, USA) were suspended in isotonic saline containing 1% CMC-Na and used as positive drugs in in vivo experiments. […] After the mice were euthanized on the eighth day, the brains, livers, and spleens were collected. DNA was isolated with a DNA purification kit ([…], Omega Bio-Tek, USA). The in vivo efficacy of the compounds against T. gondii was evaluated via quantitative real-time PCR with DNA from the brain, liver, and spleen. The numbers of parasites in the tissue samples were determined using standard curves constructed using known numbers of tachyzoites, as previously described.

T. gondii RH tachyzoites = test: Screening for anti-T. gondii activity in vitro (plaque and qPCR assays); type: cell-based, Toxoplasma gondii; conditions: 30 μM screening
Experimental: The anti-T. gondii activity of compounds NBZ001‒037 was examined via RT-PCR. Confluent Vero cells in 6-well plates were infected with 2 × 10^5 T. gondii RH tachyzoites per well, incubated for 6 h, and then washed twice with PBS to remove extracellular tachyzoites. The cell monolayers were incubated with DMEM (1% FBS) containing various concentrations of NBZ001‒037 for 24 h. Total genomic DNA from each sample was isolated with the DNAiso reagent (Takara), and the levels of the 529-bp repeat element of T. gondii were measured by qPCR. A plaque assay was used to evaluate the activity of the compounds. The detailed experimental procedures were described in previous studies.

Row | Compound | ultrastructural change of T. gondii tachyzoites (TEM) (T. gondii tachyzoites; 24 h of treatment) | ultrastructural change of T. gondii tachyzoites (TEM) (T. gondii tachyzoites; incubation 8 h) | proliferation ability of the T. gondii PRU strain (parasites per PV, number of PVs) (T. gondii PRU strain) | pIC50 [1] | inhibition of the formation of T. gondii cysts compared with control [2] | CC50 at 24 h [3] | Cytotoxicity (Vero cells) | inhibition at 30 µM (Vero cells) | pIC50 [4] | number of parasitophorous vacuoles (PVs) invaded by RH-GFP tachyzoites [4] | reduction of mean T. gondii burden in the liver [5] | reduction of mean numbers of T. gondii parasites in the brain [5] | reduction of mean numbers of T. gondii parasites in the spleen [5] | increase in potency compared with nonaromatic heterocycles (NBZ016–018) (T. gondii RH tachyzoites) | selectivity index (SI) ([1]; CC50 host cells / IC50 proliferation)
1 | O=C(Nc1ccccc1)c1ccc2[nH]c3c4[n+](ccc3c2c1)-c1ccccc1C4=O [NBZ035] | the parasite ruptured, and severe cavitation occurred | cracks in the somatic cytoplasm of the parasite | significantly (P ≤ 0.05) inhibited | 5.80 | twofold | 80.6 µM | > 30.00 µM | 3.27% | 5.95 | significantly reduced | 88.52% | 93.21% | 89.40% | – | –
2 | O=C(Nc1ccccc1)c1ccc2[nH]c3c(C(=O)c4cccc(Br)c4)nccc3c2c1 [NBZ023] | the parasite ruptured, and severe cavitation occurred | cracks in the somatic cytoplasm of the parasite | significantly (P ≤ 0.05) inhibited | 5.55 | twofold | 883 µM | > 30.00 µM | 4.56% | 5.33 | significantly reduced | 56.42% | 70.72% | 68.90% | 2- to 3 fold | 309.8
